Experimental data: patent US20160326142A1, “PYRAZOLE CARBOXAMIDE COMPOUNDS, COMPOSITIONS AND METHODS OF USE” (Genentech, Inc., priority 2012, published 2016)
pKi: −log10 of the molar value.

These compounds were tested against T1, ITK (Homo sapiens, UniProt Q08881) (assay: ITK enzyme assay (Caliper or LCMS peptide phosphorylation)). Conditions: purified ITK (Invitrogen PV3875), 20 μM ATP, Ki by Morrison's quadratic equation.
T1 construct: purchased Invitrogen PV3875
T1 sequence (Q08881 1-620): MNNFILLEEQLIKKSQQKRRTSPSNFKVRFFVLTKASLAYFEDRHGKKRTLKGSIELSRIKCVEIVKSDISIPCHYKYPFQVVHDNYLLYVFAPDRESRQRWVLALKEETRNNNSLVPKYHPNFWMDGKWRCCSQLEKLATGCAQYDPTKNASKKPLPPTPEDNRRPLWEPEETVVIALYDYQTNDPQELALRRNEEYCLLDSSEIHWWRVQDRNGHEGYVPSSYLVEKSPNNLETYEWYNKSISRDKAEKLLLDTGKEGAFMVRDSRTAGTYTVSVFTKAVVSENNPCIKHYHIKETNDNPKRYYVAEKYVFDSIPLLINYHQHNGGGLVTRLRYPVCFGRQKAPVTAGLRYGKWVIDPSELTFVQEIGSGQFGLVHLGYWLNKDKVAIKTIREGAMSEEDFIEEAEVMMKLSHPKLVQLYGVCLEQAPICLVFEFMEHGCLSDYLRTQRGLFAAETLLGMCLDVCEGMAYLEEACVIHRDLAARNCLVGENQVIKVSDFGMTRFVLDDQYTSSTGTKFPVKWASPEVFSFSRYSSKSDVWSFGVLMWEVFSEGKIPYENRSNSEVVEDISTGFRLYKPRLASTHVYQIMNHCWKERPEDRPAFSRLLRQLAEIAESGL
Type: biochemical
Outline: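 Purified human ITK peptide phosphorylation, quenched with EDTA (50 mM final) for Caliper LabChip separation or TCA (5% v/v final) for UPLC-MS/MS MRM quantification. Ki derived via Morrison tight-binding equation, corrected for competitive inhibition using ATP concentration relative to Km,app.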
With CC(C1CCOCC1)n1cc(NC(=O)c2n[nH]c3c2CCC(C)(C)C3)cn1 (single isomer, unassigned) [Example 78a, 6,6-dimethyl-N-(1-(1-(tetrahydro-2H-pyran-4-yl)ethyl)-1H-pyrazol-4-yl)-4,5,6,7-tetrahydro-1H-indazole-3-carboxamide] the pKi was 7.59. CC1(C)CCc2c(C(=O)Nc3cnn(C4COCC4c4ccccc4)c3)n[nH]c2C1 (single isomer, unassigned) [Example 132b, 6,6-dimethyl-N-(1-(4-phenyltetrahydrofuran-3-yl)-1H-pyrazol-4-yl)-4,5,6,7-tetrahydro-1H-indazole-3-carboxamide] gave a pKi of 8.00. CC12Cc3[nH]nc(C(=O)Nc4cnn(C(c5ccccc5)C5CC[S+]([O-])CC5)c4)c3CC1C2 (single isomer, unassigned) [Example 120a, 5a-methyl-N-(1-((1-oxidotetrahydro-2H-thiopyran-4-yl)(phenyl)methyl)-1H-pyrazol-4-yl)-1,4,4a,5,5a,6-hexahydrocyclopropa[f]indazole-3-carboxamide] was tested, and the pKi was 10.00. CC1(C)CCc2c(C(=O)Nc3cnn(C(c4cccc(C#N)c4)C4CCS(=O)(=O)CC4)c3)n[nH]c2C1 (single isomer, unassigned) [Example 110a, N-(1-((3-cyanophenyl)(1,1-dioxidotetrahydro-2H-thiopyran-4-yl)methyl)-1H-pyrazol-4-yl)-6,6-dimethyl-4,5,6,7-tetrahydro-1H-indazole-3-carboxamide] gave a pKi of 9.70. With O=C1CCC2(CCc3c(C(=O)Nc4cnn(Cc5ccccc5)c4)n[nH]c3C2)N1 (single isomer, unassigned) [Example 148a, N-(1-benzyl-1H-pyrazol-4-yl)-5′-oxo-1,4,5,7-tetrahydrospiro[indazole-6,2′-pyrrolidine]-3-carboxamide] the pKi was < 6.40. With CC1(C)CCc2c(C(=O)Nc3cnn(C(CCN4CC(F)(F)C4)c4ccccc4)c3)n[nH]c2C1 (single isomer, unassigned) [Example 121a, N-(1-(3-(3,3-difluoroazetidin-1-yl)-1-phenylpropyl)-1H-pyrazol-4-yl)-6,6-dimethyl-4,5,6,7-tetrahydro-1H-indazole-3-carboxamide] the pKi was 8.22. With CC(=O)N1CC(C(c2ccccc2)n2cc(NC(=O)c3n[nH]c4c3CCC(C)(C)C4)cn2)C1 (single isomer, unassigned) [Example 37a, N-(1-((1-acetylazetidin-3-yl)(phenyl)methyl)-1H-pyrazol-4-yl)-6,6-dimethyl-4,5,6,7-tetrahydro-1H-indazole-3-carboxamide] the pKi was 7.85. With CN(CC(c1ccccc1)n1cc(NC(=O)c2n[nH]c3c2CCC(C)(C)C3)cn1)S(C)(=O)=O (single isomer, unassigned) [Example 61b, 6,6-dimethyl-N-(1-(2-(N-methylmethylsulfonamido)-1-phenylethyl)-1H-pyrazol-4-yl)-4,5,6,7-tetrahydro-1H-indazole-3-carboxamide] the pKi was 9.00. In the case of CC1(C)CCc2c(C(=O)Nc3cnn(C(c4cccnc4)C4CCCCS4(=O)=O)c3)n[nH]c2C1 (single isomer, unassigned) [Example 144b, N-(1-((1,1-dioxidotetrahydro-2H-thiopyran-2-yl)(pyridin-3-yl)methyl)-1H-pyrazol-4-yl)-6,6-dimethyl-4,5,6,7-tetrahydro-1H-indazole-3-carboxamide], the pKi was 8.52. For CC1(N2CCOCC2)CCc2c(C(=O)Nc3cnn(Cc4ccccc4)c3)n[nH]c2C1 (single isomer, unassigned) [Example 149b, N-(1-benzyl-1H-pyrazol-4-yl)-6-methyl-6-morpholino-4,5,6,7-tetrahydro-1H-indazole-3-carboxamide], the pKi was < 6.40. CC1(C)CCc2c(C(=O)Nc3cnn(C(c4ccnc(N)c4)C4CCOCC4)c3)n[nH]c2C1 (single isomer, unassigned) [Example 133b, N-(1-((2-aminopyridin-4-yl)(tetrahydro-2H-pyran-4-yl)methyl)-1H-pyrazol-4-yl)-6,6-dimethyl-4,5,6,7-tetrahydro-1H-indazole-3-carboxamide] gave a pKi of 8.70. Compound CC1(C)CCc2c(C(=O)Nc3cnn(Cc4ccnc(N)c4)c3)n[nH]c2C1 [Example 111, N-(1-((2-aminopyridin-4-yl)methyl)-1H-pyrazol-4-yl)-6,6-dimethyl-4,5,6,7-tetrahydro-1H-indazole-3-carboxamide] has a pKi of 8.10. With CC1(C)Cc2[nH]nc(C(=O)Nc3cnn(C(c4ccccc4)C4CCS(=O)(=O)CC4)c3)c2C1 (single isomer, unassigned) [Example 94b, N-(1-((1,1-dioxidotetrahydro-2H-thiopyran-4-yl)(phenyl)methyl)-1H-pyrazol-4-yl)-5,5-dimethyl-1,4,5,6-tetrahydrocyclopenta[c]pyrazole-3-carboxamide] the pKi was 7.89. Work on CN(C)CCC(c1ccccc1)n1cc(NC(=O)c2n[nH]c3c2C2CC2CC3)cn1 (single isomer, unassigned) [Example 26c, N-(1-(3-(dimethylamino)-1-phenylpropyl)-1H-pyrazol-4-yl)-3,4,5,5a,6,6a-hexahydrocyclopropa[e]indazole-1-carboxamide] yielded a pKi of 7.66. CC1(C)CCc2c(C(=O)Nc3cnn(C(c4cccnc4)C4CCS(=O)(=O)CC4)c3)n[nH]c2C1 (single isomer, unassigned) [Example 74b, N-(1-((1,1-dioxidotetrahydro-2H-thiopyran-4-yl)(pyridin-3-yl)methyl)-1H-pyrazol-4-yl)-6,6-dimethyl-4,5,6,7-tetrahydro-1H-indazole-3-carboxamide] gave a pKi of 8.52. In the case of CC1(C)CCc2c(C(=O)Nc3cnn(C(CO)c4cccnc4)c3)n[nH]c2C1 (single isomer, unassigned) [Example 81a, N-(1-(2-hydroxy-1-(pyridin-3-yl)ethyl)-1H-pyrazol-4-yl)-6,6-dimethyl-4,5,6,7-tetrahydro-1H-indazole-3-carboxamide], the pKi was 7.77. CC(c1cnn(C)c1)n1cc(NC(=O)c2n[nH]c3c2CCC(C)(C)C3)cn1 (single isomer, unassigned) [Example 91a, 6,6-dimethyl-N-(1-(1-(1-methyl-1H-pyrazol-4-yl)ethyl)-1H-pyrazol-4-yl)-4,5,6,7-tetrahydro-1H-indazole-3-carboxamide] was tested, and the pKi was 7.96. With CN(C)CCC(c1ccccc1)n1cc(NC(=O)c2n[nH]c3c2CC2CC2(C)C3)cn1 (single isomer, unassigned) [Example 52b, N-(1-(3-(dimethylamino)-1-phenylpropyl)-1H-pyrazol-4-yl)-5a-methyl-1,4,4a,5,5a,6-hexahydrocyclopropa[f]indazole-3-carboxamide] the pKi was 7.77. CN(C)CCC(c1ccccc1)n1cc(NC(=O)c2n[nH]c3c2CC2CC2(C)C3)cn1 (single isomer, unassigned) [Example 52a, N-(1-(3-(dimethylamino)-1-phenylpropyl)-1H-pyrazol-4-yl)-5a-methyl-1,4,4a,5,5a,6-hexahydrocyclopropa[f]indazole-3-carboxamide] gave a pKi of 9.70. Work on CC1(C)CCc2c(C(=O)Nc3cnn(C(c4ccccc4)C4(F)CNC4)c3)n[nH]c2C1 (single isomer, unassigned) [Example 49b, N-(1-((3-fluoroazetidin-3-yl)(phenyl)methyl)-1H-pyrazol-4-yl)-6,6-dimethyl-4,5,6,7-tetrahydro-1H-indazole-3-carboxamide] yielded a pKi of 8.70. O=C(Nc1cnn(Cc2ccccc2)c1)c1n[nH]c2c1CC1(CC2)COC1 [Example 13, N-(1-benzyl-1H-pyrazol-4-yl)-1,4,6,7-tetrahydrospiro[indazole-5,3′-oxetane]-3-carboxamide] gave a pKi of 6.62. CCn1cc(C(C)n2cc(NC(=O)c3n[nH]c4c3CCC(C)(C)C4)cn2)cn1 (single isomer, unassigned) [Example 100b, N-(1-(1-(1-ethyl-1H-pyrazol-4-yl)ethyl)-1H-pyrazol-4-yl)-6,6-dimethyl-4,5,6,7-tetrahydro-1H-indazole-3-carboxamide] gave a pKi of 8.15. O=C(Nc1cnn(Cc2ccccc2)c1)c1n[nH]c2c1CCC1(CCCC1=O)C2 (single isomer, unassigned) [Example 105b, N-(1-benzyl-1H-pyrazol-4-yl)-2-oxo-1′,4′,5′,7′-tetrahydrospiro[cyclopentane-1,6′-indazole]-3′-carboxamide] gave a pKi of 6.62. CC1(C)CCc2c(C(=O)Nc3cnn(C(c4ccccc4)C4CS(=O)(=O)C4)c3)n[nH]c2C1 (single isomer, unassigned) [Example 89b] showed a pKi of 8.40. CC1(C)Cc2[nH]nc(C(=O)Nc3cnn(Cc4ccccc4)c3)c2CC1O (single isomer, unassigned) [Example 70b, N-(1-benzyl-1H-pyrazol-4-yl)-5-hydroxy-6,6-dimethyl-4,5,6,7-tetrahydro-1H-indazole-3-carboxamide] showed a pKi of 8.15. With CN(C)CCC(c1ccccc1)n1cc(NC(=O)c2n[nH]c3c2CC2CC2C3)cn1 (single isomer, unassigned) [Example 28c, N-(1-(3-(dimethylamino)-1-phenylpropyl)-1H-pyrazol-4-yl)-1,4,4a,5,5a,6-hexahydrocyclopropa[f]indazole-3-carboxamide] the pKi was 6.81.
